RP-LC retention time data for 79 molecules are collected here from the METLIN SMRT retention time set (Domingo-Almenara et al. 2019).

This series is described as follows: gradient 5% acetonitrile 3 min, to 50% in 2 min, to 85% in 15 min, held 3 min, 100 µL/min. The settings on record: column: Zorbax Extend-C18 2.1 x 50 mm; eluents: water / acetonitrile, 0.1% formic acid. In outline: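 The mobile phases were water and acetonitrile, each with 0.1% formic acid, pumped at 100 μL/min through a Zorbax Extend-C18 column (2.1 × 50 mm, 1.8 μm). Pure standards were injected as mixtures of ~100 molecules and detected by a quadrupole time-of-flight mass spectrometer in positive and negative ionization mode. Retention time came from computationally picked adduct peaks, each inspected by hand.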
`CCOC(=O)N1CCN(C(=O)c2cc(S(=O)(=O)N3CCOCC3)ccc2OC)CC1` returned an RP-LC retention time of 636 s.

`C=CCN1C(=O)C(C)(C)COc2cc(NS(=O)(=O)c3ccc(Cl)s3)ccc21` displayed an RP-LC retention time of 975 s.

With `O=C(NCCCN1CCCC1=O)c1ccc2nc(CCc3ccccc3)oc2c1`, the RP-LC retention time came out at 754 s.

With `O=C(NCCc1noc(C2CC2)n1)C1CCC1`, the RP-LC retention time is 651 s.

`O=C(Nc1ccc(-c2ccno2)cc1)C1CCN(C(=O)C2Sc3ccccc3NC2=O)CC1` (centres undefined): the RP-LC retention time amounted to 766 s.

`CN(C)CCNC(=O)C1CCCN(c2ncnc3c2nc2n3CCCCC2)C1` (centres undefined) showed an RP-LC retention time of 573 s.

With `Cc1cccc(S(=O)(=O)N2CC3CN(C(=O)CCC(C)C)CC(C2)O3)c1`, the RP-LC retention time was determined as 871 s.

`CCOC(=O)Cc1csc(NC(=O)Cc2csc(Nc3cc(C)ccn3)n2)n1` had an RP-LC retention time of 624 s.

`COCCCNC(=O)Cn1nc2cc(C)nc(-c3ccc(C(F)(F)F)cc3)n2c1=O` gave an RP-LC retention time of 765 s.

As for `CCN(CC)C(=O)CN1C(=O)C2CCCCN2c2ccc(S(=O)(=O)N3CCCC3)cc21` (centres undefined), the RP-LC retention time was determined as 832 s.

`CC(C)n1c(C2CCN(C(=O)Nc3ccc(Cl)cc3F)C2)nc2ccncc21` (centres undefined) showed an RP-LC retention time of 567 s.

Molecule `Cc1cc(C)cc(Oc2nccn3c(=O)n(CC(=O)Nc4cccc(C(C)C)c4)nc23)c1` showed an RP-LC retention time of 1080 s.

`Cc1ccc(CNC(=O)Cn2cnc3nc(N4CCCC(C(=O)NC5CC5)C4)sc3c2=O)cc1` (centres undefined) came in with an RP-LC retention time of 743 s.

`CNc1nc(Nc2ccc(OC)cc2)nc2ccccc12` displayed an RP-LC retention time of 641 s.

As for `CC(C)NC(=O)c1ccccc1OCC1CCCNC1` (centres undefined), the RP-LC retention time was determined as 583 s.

For the molecule `CN1CCCn2nc(C3CCN(C(=O)c4cccc(C(F)(F)F)c4)CC3)cc2C1=O`, the RP-LC retention time is 718 s.

On to `Cc1ccc(S(=O)(=O)Nc2ccc3c(c2)nc(-c2ccc(C(=O)NC(C)C)cc2)n3C)cc1`, for which the RP-LC retention time stood at 695 s.

Turning to `Cc1ccc2nc(N3CCN(c4ccc(F)cc4)CC3)c(-c3noc(C)n3)cc2c1`, the RP-LC retention time came to 732 s.

On to `O=C(Cc1c(F)cccc1Cl)NC1CCN(c2cc(-c3cccs3)[nH]n2)C1` (centres undefined), for which the RP-LC retention time turned out to be 747 s.

`COC(=O)c1ccc(NC(=O)N2CCCC2c2ccc(F)cc2)cc1` (centres undefined) registered an RP-LC retention time of 919 s.

`Cn1nc(-c2nc(Cc3ccccc3)no2)c2c1CCN(C(=O)C1CCCO1)C2` (centres undefined) had an RP-LC retention time of 777 s.

As to `COc1nccnc1N1CCC(NC(=O)Cc2cccnc2)C1` (centres undefined), the RP-LC retention time was 556 s.

`CCCn1ccc2sc(C)c(C(=O)NCc3ccc(OC)c(OC)c3)c2c1=O` yielded an RP-LC retention time of 780 s.

On to `Cn1cnc(S(=O)(=O)N2CCN(Cc3cccc(F)c3)C3(CCOCC3)C2)c1`, for which the RP-LC retention time came to 598 s.

`COC(=O)c1ccc(N2C=C(C#N)S(=O)(=O)c3ccc(Cl)cc32)cc1` had an RP-LC retention time of 954 s.

Molecule `COc1ccc(NC(=O)N2c3ccccc3NC3=C(C(=O)CCC3)C2c2ccco2)c(OC)c1` (centres undefined) displayed an RP-LC retention time of 816 s.

With `O=C(NCc1ccccc1)C1CCN(S(=O)(=O)c2cc(C(=O)N3CCCC3)cs2)CC1`, the RP-LC retention time is 760 s.

On to `Cc1cc2c(cc1S(=O)(=O)N1CCCC1C(=O)Nc1ccc(C(F)(F)F)cc1)OCC(=O)N2` (centres undefined), for which the RP-LC retention time came out at 873 s.

With `CCC(C)NC(=O)CSc1ccc(-n2nccc2-c2ccc(OC)cc2)nn1` (centres undefined), the RP-LC retention time was determined as 989 s.

On to `Cc1nc2c(sc3nc(-c4ccccc4)ccc32)c(=O)n1CC(=O)Nc1cccc(C(C)C)c1`, for which the RP-LC retention time was found to be 1210 s.

For the molecule `CCN(CC)C(=O)c1cnc2nc(C)ccc2c1Nc1ccc(S(N)(=O)=O)cc1`, the RP-LC retention time is 574 s.

Molecule `COc1cccc(CNC(=O)C2CCN(c3nnc4cccc(C)n34)CC2)c1` registered an RP-LC retention time of 642 s.

On to `c1cn(-c2cc(NC3CCCC3)ncn2)cn1`, for which the RP-LC retention time came out at 613 s.

Consider `Cc1nc2cc(N3CCCC(C(=O)NC4CCCCC4)C3)cnc2nc1C` (centres undefined), for which the RP-LC retention time stood at 723 s.

`COc1cc2c(cc1OC)C(C(=O)NCCN1CCOCC1)C1c3ccccc3CCN1C2=O` (centres undefined): the RP-LC retention time is 595 s.

`CC(=O)NC(CCS(C)(=O)=O)C(=O)Nc1ccc(-c2nc3ccc(C)cc3s2)cc1` (centres undefined) registered an RP-LC retention time of 741 s.

Take `O=C(CCCNC(=O)c1cc(-c2cccs2)[nH]n1)Nc1cccc2cccnc12`: the RP-LC retention time amounted to 697 s.

In the case of `Cc1cc(C)nc(N2CCN(c3cc(C)nc4c(C)c(-c5ccc(Cl)cc5)nn34)CC2)n1`, the RP-LC retention time came out at 1020 s.

`CCNc1cc(N2CCC(CCC(=O)Nc3ccc(OCC)cc3)CC2)ncn1` displayed an RP-LC retention time of 682 s.

`CCc1sc(NC(=O)CCS(=O)(=O)Cc2ccccc2)nc1-c1ccccc1`: the RP-LC retention time worked out at 948 s.

Molecule `O=C(Nc1ccc(F)c(F)c1)c1c(O)c2cccnc2n(-c2cccc(F)c2)c1=O` displayed an RP-LC retention time of 1260 s.

With `CCOC(=O)c1c(C)[nH]c(CCC(=O)NCc2ccc(C)o2)c1C`, the RP-LC retention time is 816 s.

In turn, `Cc1ccc2c(=O)c(C(=O)N3CCCC3)cn(CC(=O)Nc3ccc(F)c(F)c3)c2n1` came in with an RP-LC retention time of 720 s.

Molecule `Cc1cccc(-c2nc3nc(C)cc(N(CCO)CCO)n3n2)c1` returned an RP-LC retention time of 615 s.

For the molecule `COc1ccc(NC(=O)Cn2c(=O)n(-c3ccc(F)cc3)c3ncccc32)cc1OC`, the RP-LC retention time is 753 s.

Regarding `Cc1nnc(-c2cc(C)n(CC(=O)Nc3ccc(C)c(Cl)c3)c2C)o1`, the RP-LC retention time was determined as 852 s.

The molecule `CC1CN(Cc2ccccc2)c2nc3c(c(=O)n(CCN4CCOCC4)c(=O)n3C)n2C1` (centres undefined) showed an RP-LC retention time of 666 s.

Take `O=C(C1CCN(c2cnc3nccnc3c2)CC1)N1CCN(c2ccccn2)CC1`: the RP-LC retention time came to 570 s.

Molecule `O=C(CCc1nnc2c3cc(-c4ccc(F)cc4)nn3ccn12)NCCc1cccs1` showed an RP-LC retention time of 786 s.

`Cc1cc(C(=O)N2CCCn3nc(-c4ccc(F)cc4)cc3C2)nn1C` came in with an RP-LC retention time of 629 s.

Take `Cc1ccccc1Cc1nc(-c2cccc(-c3ccnn3C)c2)no1`: the RP-LC retention time was 1110 s.

`O=c1c2cc(-c3ccc(F)cc3)nn2ccn1Cc1nc(-c2cccc(Br)c2)no1` showed an RP-LC retention time of 1150 s.

As for `COc1cc(OC)cc(C(=O)NC2CCN(c3cc(-c4cccs4)[nH]n3)C2)c1` (centres undefined), the RP-LC retention time worked out at 741 s.

Take `CC1(C)Cc2cccc(OCC(=O)NCCc3ccc(S(N)(=O)=O)cc3)c2O1`: the RP-LC retention time came to 694 s.

For `Cn1cc(C(=O)N2CC(c3noc(C4CCCN4CC4CC4)n3)C2)cn1` (centres undefined), the RP-LC retention time is 549 s.

Consider `Cc1ccc(-c2nnc(Cc3nc(-c4ccc(Cl)cc4)no3)o2)cc1F`, for which the RP-LC retention time turned out to be 1190 s.

The molecule `O=C(Nc1ccccc1)c1csc(-c2ccc(N3CCCC3)nc2)n1` returned an RP-LC retention time of 728 s.

`O=C(c1ccn[nH]1)N1C[C@@H]2C(=O)N(CCc3ccccc3)C(=O)[C@@H]2C1` returned an RP-LC retention time of 656 s.

Turning to `O=C(CN1CCSc2ccccc21)NCCCN1CCN(Cc2ccccc2)CC1`, the RP-LC retention time amounted to 666 s.

In the case of `O=C1CC(c2ccccc2)Cc2nc(N3CCN(c4ccccn4)CC3)ncc21` (centres undefined), the RP-LC retention time was 624 s.

With `Cc1ccc(NC(=O)CSc2ccc(N3CCCC(C(=O)NC4CC4)C3)nn2)c(C)c1` (centres undefined), the RP-LC retention time is 625 s.

On to `CCCNC(=O)N1CCC(c2noc(-c3ccccn3)n2)C1` (centres undefined), for which the RP-LC retention time was determined as 648 s.

For `O=C(Cn1cnc2nc(N3CCC(C(=O)NC4CC4)CC3)sc2c1=O)NCc1ccccc1`, the RP-LC retention time was found to be 637 s.

`CCn1cc(CN2CCC(C(=O)NC3CCCCCC3)CC2)c2cc(Cl)ccc21` registered an RP-LC retention time of 777 s.

With `O=C(c1cn(-c2ccc(-c3nc(C4CC4)no3)cn2)cn1)N1CCCCC1`, the RP-LC retention time worked out at 864 s.

On to `Cc1ccc(CS(=O)(=O)N2CCC(CN3CCCC(C)C3)CC2)cc1` (centres undefined), for which the RP-LC retention time was 688 s.

Turning to `CCOC(=O)C(=O)NCc1nnnn1C1CCCCC1`, the RP-LC retention time was 655 s.

In turn, `Cc1nnc2c(=O)n(CC(=O)NCc3ccc(Cl)cc3)c3cccnc3n12` returned an RP-LC retention time of 703 s.

For the molecule `CNC(=O)[C@@H]1C[C@@H](O)CN1C1CCN(C(=O)CC2=CCCCC2)CC1`, the RP-LC retention time is 574 s.

The molecule `COC(=O)c1ccc2c(=O)n(-c3cccc(Cl)c3)c(N3CCSCC3)nc2c1` gave an RP-LC retention time of 1090 s.

`COCCn1nc2n(c1=O)CCN(C(=O)c1cc(C3CC3)[nH]n1)CC2` displayed an RP-LC retention time of 596 s.

The molecule `Cc1cc(=O)n2c(-c3cccc(NC(=O)c4sc(C)nc4C)c3)csc2n1` had an RP-LC retention time of 645 s.

Turning to `O=S(=O)(Nc1ccc(Cn2cncn2)cc1)c1ccccc1F`, the RP-LC retention time amounted to 688 s.

In turn, `O=C([C@@H]1C[C@H](F)CN1C(=O)Cc1ccc(F)cc1)N1CCCCC1` registered an RP-LC retention time of 601 s.

`CCC(=O)N1CCN(c2nc3c(s2)CC(C(=O)Nc2ccc(Cl)c(C)c2)CC3)CC1` (centres undefined) had an RP-LC retention time of 607 s.

`COc1ccc(C(=O)NCc2nc3ccccc3[nH]2)cc1` had an RP-LC retention time of 555 s.

Take `O=C(NCCCc1ccccc1)C1CCc2nc(N3CCOCC3)ncc2C1` (centres undefined): the RP-LC retention time is 744 s.

In turn, `Cc1ccc2nc(NC(=O)CSc3nnc(Cc4c(C)[nH]c(=O)[nH]c4=O)o3)sc2c1` came in with an RP-LC retention time of 643 s.

As to `CCn1c(=O)c2c(cc(C)n2C)n(CC(=O)Nc2ccc(F)cc2)c1=O`, the RP-LC retention time came to 780 s.
